Patent publication US20250043349A1, “DEORPHANIZING ODORS USING SINGLE CELL SEQUENCING” (PRESIDENT AND FELLOWS OF HARVARD COLLEGE, priority 2021, published 2025)

What was measured:
Olfr923 [1] = experiment: Act-Seq activation score in OSNs expressing Olfr923; type: in vivo, mouse; conditions: acetophenone vs 2-HA
Procedure: Act-Seq (Wu et al., 2017) was performed following odor exposure to quantify odor-evoked responses in each OSN subtype (defined by their expressed OR) across the entire OR repertoire. Mice were habituated to a reversed light cycle for at least for 1 week before odor exposure, transferred to a new disposable cage with regular bedding/food and kept overnight in a satellite animal facility. On the experimental day, each mouse was first transferred to a new empty disposable cage during the dark cycle and habituated for 20 minutes. Empty cages were used to avoid any activation by odorants present within the environments in which the mice were housed. Odors were added to a piece of filter paper (100 μL of odorant) in a 35 mm petri dish and a cotton ball (200 μL of odorant) and placed in each cage. […]
The remaining 169 activation genes that were also considered as HVGs often had weak loadings across multiple GEPs. […] To summarize the effects of odor activation across this set of activation genes, the TPT-expression of these activation genes were z-scored (using means and standard deviations for these genes in the control, acetophenone, and octanal datasets, identified by subsampling equal numbers of cells across all ORs expressed in at least 6 cells across 100 restarts). […] PCA was performed on the differences in z-scored activation gene expression between control and odor conditions. […]

[2] = system: acetophenone-responsive OSN subtypes; experiment: Transient naris occlusion followed by Act-Seq; type: in vivo, mouse; conditions: 10% acetophenone, 2 hours after unplugging
Procedure: Because odor responses in occluded OSNs cannot be examined in the chronic occlusion experiment due to permanent cautery, transient unilateral naris occlusion was performed using removable nasal plugs. Adult mice (6-12 weeks old) were anesthetized by isoflurane and removal nasal plugs were inserted into one of the two nostrils, as previously described (Galliano et al., 2021; Kass et al., 2012). The occlusion was confirmed by measuring airflow from the occluded nostril via thermocouple. After 5 days, a subset of mice was used for scSeq experiment directly (control mice) to assess the effects of naris occlusion on changes in gene expression. Under brief anesthesia by isoflurane, the remaining mice were unplugged and transferred to a new empty disposable cage containing either DPG alone or 10% acetophenone. After 2 hours, mice were subjected to scSeq. Each of the two nostrils was used separately in both control (open and plugged) and odor-exposed mice (open and unplugged).

[3] = system: acetophenone-responsive OSN subtypes; experiment: Environment switch followed by Act-Seq; type: in vivo, mouse; conditions: 2 weeks after switch from home cage to new odor environment
Procedure: To examine environment-dependent changes in gene expression and their effects on odor-evoked responses. Act-Seq was performed 2 weeks after environment switches. Adult mice (6-12 weeks old) were group-housed in the regular home-cage environment for at least one week before the transfer to their novel environments. Individual mice were transferred to a new disposable cage containing materials for a novel environment in the satellite animal facility. Two different novel environments were used, with each containing non-overlapping contents; Environment A (paper bedding, hay, dried flowers (such as marigold), peanuts, seeds (e.g., sunflower seeds, pumpkin seeds), puffed rice), and Environment B (garden soil, aspen shavings, coconut husks, dried fruits (e.g., berries, mango, pineapple), dried vegetables (e.g., green peas, corn, bell peppers), millet, fresh fruits (banana, apple, peach), corn flakes). Mice were singly-housed throughout the entire 2 weeks and were transferred to newly prepared environmental cages every 12 hours to minimize the contributions of any murine odors, which are likely the predominant odorants present within standard home-cage housing environments. After 2 weeks, individual mice were transferred to new empty disposable cages, and Act-Seq using acetophenone was performed as above.

Olfr923 [4] = conditions: Hu et al. 2020; Jiang et al. 2015; cited from earlier work

activation scores of acetophenone receptor-expressing OSNs from occluded (unplugged) vs open nostrils [2]: higher activation scores
Compound: CC(=O)c1ccccc1 [acetophenone]
activation scores for OSNs expressing Olfr923 (Olfr923 [1]): higher for acetophenone than 2-HA
acetophenone-driven OSN activation scores across odor environments [3]: altered acetophenone-driven OSN activation scores in an environment-dependent manner
affinity for Olfr923 (Olfr923 [4]): high affinity
